These are literature values, as cited in US7741050B2, “Identification of agonistic autoantibodies” (Max-Delbrueck-Centrum fuer Molkulare Medizin, priority 2002, dated 2010).

This series has as its target T1, AT1 receptor of cultivated cardiomyocytes (Rattus norvegicus, UniProt P25095).
T1 construct: can stimulate the AT1 receptor of cultivated cardiomyocytes; endogenous in cells; host or cells: primary cultivated cardiomyocytes of newborn rats
T1 sequence (P25095 1-359): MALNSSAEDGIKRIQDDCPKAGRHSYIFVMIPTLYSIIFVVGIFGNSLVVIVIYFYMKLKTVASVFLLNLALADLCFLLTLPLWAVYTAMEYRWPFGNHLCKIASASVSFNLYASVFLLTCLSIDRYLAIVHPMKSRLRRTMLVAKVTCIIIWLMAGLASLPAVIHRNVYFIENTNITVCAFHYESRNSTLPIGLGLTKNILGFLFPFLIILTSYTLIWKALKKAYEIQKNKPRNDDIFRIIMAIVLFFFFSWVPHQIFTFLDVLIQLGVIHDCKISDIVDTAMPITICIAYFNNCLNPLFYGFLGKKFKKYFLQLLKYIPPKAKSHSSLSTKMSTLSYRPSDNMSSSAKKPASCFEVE
The note with it: Losartan 1 μM added to cardiomyocytes stimulated by antibodies of preeclamptic women; cited from earlier work.

Take `CCCCc1nc(Cl)c(CO)n1Cc1ccc(-c2ccccc2-c2nn[nH]n2)cc1` [Losartan]: the beats per minute result was “reduced”.
